# Reference: patent US4921850A, “3-propenylcephem derivative” (Eisai Co., Ltd., priority 1986, dated 1990)
# Where two headings read alike, the source gives them in different places.
# What was measured:
# Assay in all cases: Anti-bacterial activity (MIC), agar dilution
# Assay type in all cases: cell-based
# Staph. aureus 209-P = settings: Staph. aureus 209-P, agar dilution, about 10^6 CFU/ml, 18 hours, 37° C.
# Protocol: (§1) MIC (μg/ml) were determined by an agar dilution method [Chemotherapy (Japan), 29, 76-79, 1981]. Overnight cultures of the bacterial strains in Mueller-Hinton broth were diluted to final concentration of about 10^6 CFU/ml, and 5 μl of each bacterial suspension was spotted onto Mueller-Hinton agar plates that contained twofold serial dilutions of antibiotics. MICs were measured after incubation for 18 hours at 37° C.
# Escher. coli NIHJ = settings: Escher. coli NIHJ, agar dilution, about 10^6 CFU/ml, 18 hours, 37° C.
# Protocol: as §1
# Ser. marcescens ES-75 = settings: Ser. marcescens ES-75, agar dilution, about 10^6 CFU/ml, 18 hours, 37° C.
# Protocol: as §1
# Kleb. pneumoniae EK-6 = settings: Kleb. pneumoniae EK-6, agar dilution, about 10^6 CFU/ml, 18 hours, 37° C.
# Protocol: as §1
# Pseud. aeruginosa EP-01 = settings: Pseud. aeruginosa EP-01, agar dilution, about 10^6 CFU/ml, 18 hours, 37° C.
# Protocol: as §1
# [1] = system: Morganella morganii EP-14; settings: about 10^6 CFU/ml, 37° C.
# Protocol: as §1
# [2] = Escherichia coli, 18 h, read-out: MIC
# [3] = Pseudomonas aeruginosa, EP01, 18 h, read-out: MIC
# [4] = Staphylococcus aureus, 209P, 18 h, read-out: MIC
# [5] = Serratia marcescens, ES75, 18 h, read-out: MIC
# [6] = Klebsiella pneumoniae, EK6, 18 h, read-out: MIC
# [7] = Morganella morganii, EP14, 18 h, read-out: MIC
MIC (Staph. aureus 209-P),MIC (Escher. coli NIHJ; [2]),MIC (Ser. marcescens ES-75),MIC (Kleb. pneumoniae EK-6),MIC (Pseud. aeruginosa EP-01; [3]),MIC ([1]; 18 hours),MIC (Staph. aureus 209-P; [4]),MIC (Ser. marcescens ES-75; [5]),MIC (Kleb. pneumoniae EK-6; [6]),"MIC [1, 7]",MIC (Escher. coli NIHJ),MIC (Pseud. aeruginosa EP-01),SMILES
–,0.05 µg/mL,–,–,0.8 µg/mL,–,0.4 µg/mL,0.1 µg/mL,≤ 0.025 µg/mL,0.05 µg/mL,–,–,"CC(O)C[N+](C)(C)C/C=C/C1=C(C(=O)[O-])N2C(=O)[C@@H](NC(=O)/C(=N\OCF)c3nsc(N)n3)[C@H]2SC1 (stereo partly drawn) [Example 4, 7β-[2-(5-Amino-1,2,4-thiadiazol-3-yl)-(Z)-2-fluoromethoxyiminoacetamido]-3-[(E)-3-[(2-hydroxypropyl)dimethylammonio]-1-propen-1-yl]-3-cephem-4-carboxylate]"
–,0.05 µg/mL,–,–,0.8 µg/mL,–,0.2 µg/mL,0.05 µg/mL,≤ 0.025 µg/mL,≤ 0.025 µg/mL,–,–,"C[N+](C)(C/C=C/C1=C(C(=O)[O-])N2C(=O)[C@@H](NC(=O)/C(=N\OC(F)F)c3nsc(N)n3)[C@H]2SC1)CC(N)=O [Example 114, 7β-[2-(5-Amino-1,2,4-thiadiazol-3-yl)-(Z)-2-difluoromethoxyiminoacetamido]-3-[(E)-3-(dimethylcarbamoylmethylammonio)-1-propen-1-yl]-3-cephem-4-carboxylate]"
–,≤ 0.025 µg/mL,–,–,1.56 µg/mL,–,0.2 µg/mL,≤ 0.025 µg/mL,≤ 0.025 µg/mL,≤ 0.025 µg/mL,–,–,Nc1nc(/C(=N/OC(F)F)C(=O)N[C@@H]2C(=O)N3C(C(=O)[O-])=C(/C=C/C[N+]45CCN(CC4)CC5)CS[C@H]23)ns1 [Example 116]
–,≤ 0.025 µg/mL,–,–,0.8 µg/mL,–,0.4 µg/mL,0.05 µg/mL,≤ 0.025 µg/mL,≤ 0.025 µg/mL,–,–,CC(O)C[N+](C)(C)CC=CC1=C(C(=O)[O-])N2C(=O)C(NC(=O)C(=NOCF)c3nsc(N)n3)C2SC1 (stereo not drawn) [Example 65]
–,≤ 0.025 µg/mL,–,–,0.8 µg/mL,–,0.2 µg/mL,≤ 0.025 µg/mL,≤ 0.025 µg/mL,≤ 0.025 µg/mL,–,–,C[C@H](CO)[N+](C)(C)C/C=C/C1=C(C(=O)[O-])N2C(=O)[C@@H](NC(=O)/C(=N\OCF)c3nsc(N)n3)[C@H]2SC1 [Example 68]
–,≤ 0.025 µg/mL,–,–,3.13 µg/mL,–,0.8 µg/mL,0.05 µg/mL,≤ 0.025 µg/mL,≤ 0.025 µg/mL,–,–,Nc1nc(/C(=N/OC(F)F)C(=O)N[C@@H]2C(=O)N3C(C(=O)[O-])=C(/C=C/C[n+]4ccc(C(=O)O)cc4)CS[C@H]23)ns1 [Example 115]
–,0.05 µg/mL,–,–,3.13 µg/mL,–,0.4 µg/mL,0.1 µg/mL,≤ 0.025 µg/mL,0.05 µg/mL,–,–,Nc1nc(/C(=N/OCF)C(=O)N[C@@H]2C(=O)N3C(C(=O)[O-])=C(/C=C/C[n+]4ccc(C(=O)N5CCOCC5)cc4)CS[C@H]23)ns1 [Example 108]

# The next lines start with the compound.
SMILES,MIC (Staph. aureus 209-P),MIC (Escher. coli NIHJ; [2]),MIC (Ser. marcescens ES-75),MIC (Kleb. pneumoniae EK-6),MIC (Pseud. aeruginosa EP-01; [3]),MIC ([1]; 18 hours),MIC (Staph. aureus 209-P; [4]),MIC (Ser. marcescens ES-75; [5]),MIC (Kleb. pneumoniae EK-6; [6]),"MIC [1, 7]",MIC (Escher. coli NIHJ),MIC (Pseud. aeruginosa EP-01)
"NC(=O)C1CC[N+](C/C=C/C2=C(C(=O)[O-])N3C(=O)[C@@H](NC(=O)/C(=N\OCF)c4nsc(N)n4)[C@H]3SC2)(CCO)CC1 (single isomer, unassigned) [Example 2-2, 7β-[2-(5-Amino-1,2,4-thiadiazol-3-yl)-(Z)-2-fluoromethoxyiminoacetamido]-3-[(E)-3-[1-(2-hydroxyethyl)-4-carbamoyl-1-piperidinio]-1-propen-1-yl]-3-cephem-4-carboxylate]",0.4 µg/mL,≤ 0.025 µg/mL,≤ 0.025 µg/mL,≤ 0.025 µg/mL,1.56 µg/mL,≤ 0.025 µg/mL,–,–,–,–,–,–
C[N+]1(CC=CC2=C(C(=O)[O-])N3C(=O)C(NC(=O)C(=NOCF)c4nsc(N)n4)C3SC2)CC(O)CC1CO (stereo not drawn) [Example 89-2],0.2 µg/mL,–,≤ 0.025 µg/mL,≤ 0.025 µg/mL,–,≤ 0.025 µg/mL,–,–,–,–,≤ 0.025 µg/mL,0.8 µg/mL
Nc1nc(/C(=N/OCF)C(=O)N[C@@H]2C(=O)N3C(C(=O)[O-])=C(/C=C/C[N+]4(CCO)CCCC4)CS[C@H]23)ns1 [Example 20],–,≤ 0.025 µg/mL,–,–,1.56 µg/mL,–,0.2 µg/mL,0.05 µg/mL,≤ 0.025 µg/mL,≤ 0.025 µg/mL,–,–
C[N+]1(C/C=C/C2=C(C(=O)[O-])N3C(=O)[C@@H](NC(=O)/C(=N\OCF)c4nsc(N)n4)[C@H]3SC2)CCN(C=O)CC1 [Example 24],–,≤ 0.025 µg/mL,–,–,1.56 µg/mL,–,0.2 µg/mL,≤ 0.025 µg/mL,≤ 0.025 µg/mL,≤ 0.025 µg/mL,–,–
C[C@@H](O)[C@@H](C(N)=O)[N+](C)(C)C/C=C/C1=C(C(=O)[O-])N2C(=O)[C@@H](NC(=O)/C(=N\OCC#N)c3nsc(N)n3)[C@H]2SC1 [Example 153],–,0.2 µg/mL,–,–,1.56 µg/mL,–,0.4 µg/mL,0.1 µg/mL,0.1 µg/mL,0.1 µg/mL,–,–
"C[N+]1(C/C=C/C2=C(C(=O)[O-])N3C(=O)[C@@H](NC(=O)/C(=N\OCF)c4nsc(N)n4)[C@H]3SC2)C[C@H](O)C[C@H]1CO (stereo partly drawn) [Example 8, 7β-[2-(5-Amino-1,2,4-thiadiazol-3-yl)-(Z)-2-fluoromethoxyiminoacetamido]-3-[(E)-3-(4R-hydroxy-2S-hydroxymethyl-1-methyl-1-pyrrolidinio)-1-propen-1-yl]-3-cephem-4-carboxylate]",–,≤ 0.025 µg/mL,–,–,0.8 µg/mL,–,0.2 µg/mL,≤ 0.025 µg/mL,≤ 0.025 µg/mL,≤ 0.025 µg/mL,–,–
Nc1nc(/C(=N/OCF)C(=O)N[C@@H]2C(=O)N3C(C(=O)[O-])=C(/C=C/C[N+]4(CCO)CCN(S(N)(=O)=O)CC4)CS[C@H]23)ns1 [Example 29],–,≤ 0.025 µg/mL,–,–,0.8 µg/mL,–,0.4 µg/mL,0.1 µg/mL,≤ 0.025 µg/mL,≤ 0.025 µg/mL,–,–
"CN1CCC[N+]1(C)C/C=C/C1=C(C(=O)[O-])N2C(=O)[C@@H](NC(=O)/C(=N\OCC#N)c3nsc(N)n3)[C@H]2SC1 (single isomer, unassigned) [Example 160-B]",0.1 µg/mL,–,0.2 µg/mL,0.05 µg/mL,–,0.05 µg/mL,–,–,–,–,0.05 µg/mL,0.8 µg/mL
C[N+](C)(C/C=C/C1=C(C(=O)[O-])N2C(=O)[C@@H](NC(=O)/C(=N\OCF)c3nsc(N)n3)[C@H]2SC1)CC(=O)NCCO [Example 75],–,0.05 µg/mL,–,–,1.56 µg/mL,–,0.4 µg/mL,0.2 µg/mL,0.05 µg/mL,0.05 µg/mL,–,–
C[N+](C)(C/C=C/C1=C(C(=O)[O-])N2C(=O)[C@@H](NC(=O)/C(=N\OCF)c3nsc(N)n3)[C@H]2SC1)CC(O)CO (stereo partly drawn) [Example 88],–,≤ 0.025 µg/mL,–,–,0.8 µg/mL,–,0.2 µg/mL,≤ 0.025 µg/mL,≤ 0.025 µg/mL,≤ 0.025 µg/mL,–,–
CN(C)C(=O)C[N+](C)(C)C/C=C/C1=C(C(=O)[O-])N2C(=O)[C@@H](NC(=O)/C(=N\OCF)c3nsc(N)n3)[C@H]2SC1 [Example 56],–,0.05 µg/mL,–,–,1.56 µg/mL,–,0.4 µg/mL,0.1 µg/mL,0.05 µg/mL,0.05 µg/mL,–,–
"C[N+](C/C=C/C1=C(C(=O)[O-])N2C(=O)[C@@H](NC(=O)/C(=N\OCF)c3nsc(N)n3)[C@H]2SC1)(CCO)CCO [Example 144, 7β-[2-(5-Amino-1,2,4-thiadiazol-3-yl)-(Z)-2-fluoromethoxyiminoacetamido]-3-[(E)-3-[bis(2-hydroxyethyl)methylammonio]-1-propen-1-yl]-3-cephem-4-carboxylate]",–,≤ 0.025 µg/mL,–,–,0.8 µg/mL,–,0.2 µg/mL,0.1 µg/mL,0.05 µg/mL,≤ 0.025 µg/mL,–,–
